According to article PMC3419814 (Bioorganic & medicinal chemistry, 2012):

Assay: logP from HPLC retention times
Format: physicochemical

For COC(=O)c1cn(-c2sc(Nc3cc(Cl)ccc3OC)nc2-c2sc(NC(=O)C(C)(C)C)nc2C)nn1 [compound 14, Methyl 1-(2-(5-chloro-2-methoxyphenylamino)-4′-methyl-2′-pivalamido-4,5′-bithiazol-5-yl)-1H-1,2,3-triazole-4-carboxylate], which chromatographic logP is on record?
The chromatographic logP was 4.8 to 5.5.

For COc1ccc(Cl)cc1Nc1nc(-c2sc(NC(=O)C(C)(C)C)nc2C)c(-n2cc(C(=O)O)nn2)s1 [compound 15, 1-(2-(5-Chloro-2-methoxyphenylamino)-4′-methyl-2′-pivalamido-4,5′-bithiazol-5-yl)-1H-1,2,3-triazole-4-carboxylic acid], which chromatographic logP is on record?
Its chromatographic logP is 4.8 to 5.5.

With COc1ccc(Cl)cc1Nc1nc(-c2sc(NC(=O)C(C)(C)C)nc2C)c(-n2cc(CO)nn2)s1 [compound 13, N-(2-(5-Chloro-2-methoxyphenylamino)-5-(4-(hydroxyl-methyl)-1H-1,2,3-triazol-1-yl)-4′-methyl-4,5′-bithiazol-2′-yl)pivalamide] as the compound, how does the chromatographic logP read?
The chromatographic logP was 4.8 to 5.5.
